Results as given in patent US20150094260A1, “BUFFERED OPHTHALMIC COMPOSITIONS AND METHODS OF USE THEREOF” (ARAVA BIO-TECH LTD., priority 2010, published 2015).
“Also recorded” adds a separate entry of the source. Ends that are not written are not given here. * marks the point of attachment. Myristoyl = CCCCCCCCCCCCCC(=O)*

What was measured:
[1] = system: corneal wound in mice; experiment: Alkali burning of mouse corneas with Silver Nitrate applicators; type: in vivo; settings: 1 μg/ml; for wound healing compared to control (Formula 1): 3 times daily for 3 or 7 days; for inflammatory cells (lymphocytes) infiltration into the wound area / neutrophils recruitment to the corneal wound gap / pathological angiogenesis in corneal wound area / corneal re-epithelialization (wounds with full epidermal closure at 7 days post wounding) / pathological corneal swelling: three daily instillations, Formula 1 as control; for inflammatory cells (lymphocytes) infiltration into the wound area / neutrophils recruitment to the corneal wound gap / pathological angiogenesis in corneal wound area / pathological corneal swelling: 3 days; for inflammatory cells (lymphocytes) infiltration into the wound area: FIG. 31; for neutrophils recruitment to the corneal wound gap: FIG. 32; for pathological angiogenesis in corneal wound area: FIG. 33; for corneal re-epithelialization (wounds with full epidermal closure at 7 days post wounding): FIG. 30; for pathological corneal swelling: FIG. 34
Protocol: Mice were subjected to chemical alkali burn wounding (using Silver Nitrate applicators for 10 seconds). Eyes were treated by three daily ocular instillations of treatments during 7 successive days with DAP-1 1 μg/ml, DIP-1 1 μg/ml and EPIP-2 1 μg/ml or with Formula 1 as control. Percentage of wounds achieved full epidermal closure at 7 days post wounding.
FIG. 31 is a histogram showing that DAP-1 1 μg/ml and DIP-1 1 μg/ml reduce lymphocytes infiltration in corneal wound gap in mice. Mice were subjected to chemical alkali burn wounding (using Silver Nitrate applicators for 10 seconds). Eyes were treated by three daily ocular instillations of treatments during 3 successive days with DAP-1 1 μg/ml, DIP-1 1 μg/ml and EPIP-2 1 μg/ml or with Formula 1 as control. Histological H&E staining of the corneas wounded area was performed and lymphocytes infiltration was arbitrarily assessed.
FIG. 32 is a histogram showing that DAP-1 1 μg/ml and EPIP-2 1 μg/ml decrease neutrophils recruitment to the corneal wound gap in mice. Mice were subjected to chemical alkali burn wounding (using Silver Nitrate applicators for 10 seconds). Eyes were treated by three daily ocular instillations of treatments during 3 successive days with DAP-1 1 μg/ml, DIP-1 1 μg/ml and EPIP-2 1 μg/ml or with Formula 1 as control. Histological sections of […] were stained with specific neutrophil staining kit (according to manufacturer). Neutrophils were counted per fixed field ×200 and represented by arbitrary units.
Mice were subjected to chemical alkali burn wounding (using Silver Nitrate applicators for 10 seconds). Eyes were treated by three daily ocular instillations of treatments during 3 successive days with DAP-1 1 μg/ml, DIP-1 1 μg/ml and EPIP-2 1 μg/ml or with Formula 1 as control. Histological H&E staining of the corneas wounded area has been performed. Blood vessels in entire corneal area were assessed and the results are represented graphically in objective arbitrary units.
FIG. 34 is a histogram showing that DIP-1 1 μg/ml and EPIP-2 1 μg/ml decrease pathological swelling of wounded cornea in mice. Mice were subjected to chemical alkali burn wounding (using Silver Nitrate applicators for 10 seconds). Eyes were treated by three daily ocular instillations of treatments during 3 successive days with DAP-1 1 μg/ml, DIP-1 1 μg/ml and EPIP-2 1 μg/ml or with Formula 1 as control. Histological H&E staining of the corneas wounded area has been performed and corneal swelling was objectively assessed. The results are presented in arbitrary units. […]
In another experiment, Alkali burning of corneas was performed on anaesthetized mice using Silver Nitrate applicators (75% Silver nitrate, 25% Potassium nitrate, Grafco, GFCO Inc.) for 10 seconds. The eyes were irrigated immediately with 5 ml sterile saline. Eyes were treated 3 times daily for 3 or 7 days with DAP-1 1 μg/ml, DIP-1 1 μg/ml and EPIP-2 1 μg/ml or Formula 1 as control.

[2] = system: rabbit eyes subject to mechanical corneal wounding; experiment: Mechanical corneal wounding in rabbit eyes, corneal erosion area by fluorescein staining; type: in vivo
Protocol: Mechanical Corneal Ulcer Formation: A 6 mm corneal trephine (Grieshaber, Switzerland), preset for 50 micrometer in depth and a miniblade were used under a surgical microscope, to perform a uniform central corneal epithelial erosions, 6 mm in diameter and 50 micrometer in depth.
Rabbits were subjected to mechanical corneal wounding following the protocol discussed above. Eyes were treated by two daily ocular instillations of treatments during 3 successive days. Fluorescein staining was used to measure the corneal erosion area at twelve hours intervals starting 24 hrs post wounding and up to 72 hrs.
In addition to the time to heal parameter which is routinely assessed in wound healing studies, several publications established the importance of a new parameter, 50% reduction in wound size to serve as a robust predictor of complete wound closure. […] Results were therefore analyzed as percentage of eyes with 50% closure or higher at 24 hr post wounding (FIG. 2).
Rabbits were subjected to mechanical corneal wounding as discussed in Example 1. Eyes were treated by two daily ocular instillations of treatments during 3 successive days. Fluorescein staining was used to measure the corneal erosion area at six hours intervals.
Additional experiments were conducted using varying dosages of active agent. Rabbits were subjected to mechanical corneal wounding as described above. Eyes were treated by two daily ocular instillations of treatments during 3 successive days with 0.1 or 0.5 μg/eye/treatment of MPDY-1 alone in HOB-10 (referred to as HO/05/09) or in BSS or in combination with insulin 0.1-0.5 μg/eye/treatment. Rabbits received a total of daily dose from 0.1 μg (1 μg/ml) and up to 2 μg (20 μg/ml). Fluorescein staining was used to measure the corneal erosion area at twelve hours intervals starting 24 hrs post wounding and up to 72 hr.
Rabbits were subjected to mechanical corneal wounding as described above. […]

[3] = system: ICAM-1 expression on endothelial cells and keratinocytes; macrophages, neutrophiles and T-cells at inflammation site; experiment: Anti-inflammatory effect of MPDY-1 in various in-vitro, ex-vivo and in-vivo models
Excerpt: This example discusses experiments showing the anti-inflammatory effect of MPDY-1.

Substance | wound healing compared to control (Formula 1) [1] | inflammatory cells (lymphocytes) infiltration into the wound area [1] | neutrophils recruitment to the corneal wound gap [1] | pathological angiogenesis in corneal wound area [1] | corneal re-epithelialization (wounds with full epidermal closure at 7 days post wounding) [1] | pathological corneal swelling [1] | eyes completely healed without ocular scarring (full closure) at 48 hr post wounding ([2]; 48 hr, MPDY-1 0.1 or 0.5 μg/eye/treatment, two daily instillations, FIG. 11) [%] | time within which all treated eyes reached full closure ([2]; post wounding, FIG. 11) [h] | closure of ocular injury at 24 h post wounding ([2]; versus Control (standard of care ocular buffer), two daily instillations, FIG. 9) [%] | ICAM-1 expression on endothelial cells and keratinocytes [3] | activation of macrophages at inflammation site [3] | macrophages, neutrophiles and T-cells infiltration into inflammation site [3]
H-Met-Arg-Ala-Ala-Glu-Ala-Ala-Ala-Ala-Glu-Pro-Met-OH (H-MRAAEAAAAEPM-OH) [DAP-1] | wound healing enhancement | excelled in reducing inflammatory cells infiltration into the wound area | more potent in decreasing specific neutrophils recruitment | reduce angiogenesis in corneal wound gap | promote re-epithelialization of corneal wound |  |  |  |  |  |  | 
H-Pro-Tyr-Ile-Ala-Leu-Asn-Val-Asp-OH (H-PYIALNVD-OH) [EPIP-2] | wound healing enhancement |  | more potent in decreasing specific neutrophils recruitment | reduce angiogenesis in corneal wound gap | promote re-epithelialization of corneal wound | normalization in pathological corneal swelling |  |  |  |  |  | 
MPDY-1: N-myristoylated peptide defined by SEQ ID NO: 2 (Phe-Ala-Arg-Lys-Gly-Ala-Leu-Arg-Gln), PKC-α inhibitor; tested in BSS (Myristoyl-FARKGALRQ) |  |  |  |  |  |  | 30 | ≤ 72 | 60 | attenuate ICAM-1 expression on endothelial cells and keratinocytes | attenuate activation of macrophages at inflammation site | inhibit macrophages, neutrophiles and T-cells infiltration into inflammation site
Myristoyl-Ser-Phe-Asn-Ser-Tyr-Glu-Leu-Gly-Ser-Leu-OH (Myristoyl-SFNSYELGSL-OH; SMILES CCCCCCCCCCCCCC(=O)N[C@@H](CO)C(=O)N[C@@H](Cc1ccccc1)C(=O)N[C@@H](CC(N)=O)C(=O)N[C@@H](CO)C(=O)N[C@@H](Cc1ccc(O)cc1)C(=O)N[C@@H](CCC(=O)O)C(=O)N[C@@H](CC(C)C)C(=O)NCC(=O)N[C@@H](CO)C(=O)N[C@@H](CC(C)C)C(=O)O) [DIP-1] | wound healing enhancement | excelled in reducing inflammatory cells infiltration into the wound area |  | reduce angiogenesis in corneal wound gap | more potent; also recorded: promote re-epithelialization of corneal wound | normalization in pathological corneal swelling |  |  |  |  |  | 
